Key:
coconut LPAAT [1] = target: T1, coconut LPAAT (Cocos nucifera, UniProt Q42670); test: LPAAT activity assay, coconut P2 membrane preparation; assay type: biochemical; parameters: white endosperm tissue lining the inside of the endocarp can be dissected and collected; from tissue; host or cells: immature coconut endosperm, P2 membrane fraction
T1 sequence (Q42670 1-308): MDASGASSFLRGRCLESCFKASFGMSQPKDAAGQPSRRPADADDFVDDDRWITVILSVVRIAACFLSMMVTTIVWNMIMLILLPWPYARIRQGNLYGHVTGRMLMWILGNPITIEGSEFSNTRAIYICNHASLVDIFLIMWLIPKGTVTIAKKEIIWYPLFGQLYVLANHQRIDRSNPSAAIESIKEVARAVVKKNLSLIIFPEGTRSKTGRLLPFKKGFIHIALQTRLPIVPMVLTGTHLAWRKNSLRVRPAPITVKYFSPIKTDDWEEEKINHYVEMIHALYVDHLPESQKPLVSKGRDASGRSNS
Experimental: (§1) To assay for LPAAT activity, the sample is incubated with lysophosphatidic acid (LPA) and acyl-coenzyme A (acyl-CoA) substrates in buffered solution. The acyl substituents of the two substrates are chosen to correspond with the specificity of the enzyme being measured. For example, to measure activity of an LPAAT having preference for medium-chain substrates, lauroyl-LPA (lauroyl-lysophosphatidic acid) and lauroyl-CoA may be used, to measure activity of an LPAAT preferring longer-chain acyl groups, oleoyl-LPA and oleoyl-CoA may be used, to measure activity of an LPAAT preferring very-long chain substrate, erucyl-LPA and erucyl-CoA may be used, and so on, depending upon the type of LPAAT to be tested. The acyl group of one substrate is radioactively labeled in order to detect the product formed. In the examples which follow the acyl substituent of the acyl-CoA substrate is radiolabeled with ^14 C in the carboxyl group. LPAAT activity results in transfer of this acyl group from the acyl-CoA "donor" substrate to the LPA "acceptor" substrate, converting the latter into the product, phosphatidic acid (PA). LPAAT activity is measured as the amount of radioactive product formed in a given assay time. The PA product is radioactive as a result of the transferred radiolabeled acyl group at the central carbon atom of the molecule, and the quantity of PA formed may be determined by measuring radioactivity of the PA fraction. For this measurement, the PA is first separated from the acyl-CoA substrate by solvent partitioning, or by thin-layer chromatography (TLC).
(§2) 20 μl of the sample to be assayed for LPAAT activity is mixed with 217.5 μl of an assay ingredient mixture in a 4-ml, screw-cap vial. […] The incubation takes place in a water bath at 30° C., for 20-30 minutes.
(§3) To stop the assay, 0.25 ml of 1M KCl in 0.2M H3 PO4 is added to the vial. At this point, 40 μl BSA (bovine serum albumin, fraction V) at 1 mg/ml are added, followed by 0.75 ml of a solution of 67 μg/ml unlabeled PA (acting as a "carrier" to facilitate partitioning) in chloroform/methanol (2:1, v/v). The chain lengths of the PA acyl groups are chosen to correspond to those used in the assay substrates. Upon thorough mixing of these components the radiolabeled PA product of the LPAAT reaction partitions into the organic phase and away from the unreacted acyl-CoA and LPA. The vial is centrifuged briefly at low speed to facilitate the separation of organic (lower) and aqueous (upper) phases. The aqueous phase is then removed and discarded. The total radioactivity extracted into the organic phase is determined by liquid scintillation counting; a 100 μl sample of the organic phase is transferred to a 20 ml scintillation vial and allowed to dry, and scintillation fluid (3-5 ml) is added to the vial. The radioactivity of the sample, after subtraction of the "minus-enzyme" or "minus-LPA" radioactivities, is taken as an approximate indication of the amount of PA formed in the LPAAT-catalyzed reaction and therefore of LPAAT activity.
A more accurate estimation of the LPAAT activity may be obtained by separating the PA product from these contaminants by TLC. The remaining organic phase is applied to a silica TLC plate. Ascending chromatography is carried out for 50 minutes, using the solvent mixture chloroform/pyridine/88% formic acid (50:30:7, v/v). After the plate has dried, the distribution of radioactivity is visualized and quantitated using an AMBIS radioanalytic imaging system (AMBIS Systems Inc., San Diego, Calif.). From prior application of standard lipid components the Rf of the PA is known. The radioactivity associated with the PA spot is expressed as a percentage of the total radioactivity of the assay sample loaded on the plate. This ratio provides an indication of the proportion of the scintillation counts which represent the PA product, and may be used to correct the counts to obtain the total PA radioactivity formed in the assay. […]

coconut LPAAT [2] = test: as above; assay type: biochemical, Cocos nucifera; conditions: coconut P2 preparation, same assay
Experimental: To assay for LPAAT activity, the sample is incubated with lysophosphatidic acid (LPA) and acyl-coenzyme A (acyl-CoA) substrates in buffered solution. The acyl substituents of the two substrates are chosen to correspond with the specificity of the enzyme being measured. […] LPAAT activity is measured as the amount of radioactive product formed in a given assay time. The PA product is radioactive as a result of the transferred radiolabeled acyl group at the central carbon atom of the molecule, and the quantity of PA formed may be determined by measuring radioactivity of the PA fraction. […]
To stop the assay, 0.25 ml of 1M KCl in 0.2M H3 PO4 is added to the vial. […] The total radioactivity extracted into the organic phase is determined by liquid scintillation counting; a 100 μl sample of the organic phase is transferred to a 20 ml scintillation vial and allowed to dry, and scintillation fluid (3-5 ml) is added to the vial. The radioactivity of the sample, after subtraction of the "minus-enzyme" or "minus-LPA" radioactivities, is taken as an approximate indication of the amount of PA formed in the LPAAT-catalyzed reaction and therefore of LPAAT activity. […]

LPCAT = LPCAT assay, coconut P2 preparation; assay type: biochemical, Cocos nucifera; conditions: substrates 12:0-CoA+12:0-LPC
Text: Lysophosphatidylcholine (LPC) acyltransferase (LPCAT) is an enzyme analogous to LPAAT, involved in the biosynthesis of membrane lipids (phosphatidylcholine and derivatives thereof) instead of storage oil. The possibility that the activity measured in the LPAAT assay is not true LPAAT, but rather an inefficient action of LPCAT on the LPAAT substrates, can be tested by direct assay for LPCAT. For example, the LPAAT activity of the coconut P2 preparation with the substrate combination 12:0-CoA+12:0-LPA is readily measurable, whereas the LPCAT activity of the same preparation with the substrates 12:0-CoA+12:0-LPC is undetectable. […] The activities on long-chain substrates may represent either a single acyltransferase enzyme able to use LPA and LPC acceptor substrates, or discrete "long-chain" LPAAT and LPCAT enzymes which are present together.

Rapeseed LPAAT = test: LPAAT activity assay, rapeseed P2 membrane preparation; assay type: biochemical, Brassica napus; conditions: acyl-CoA donor varied, acceptor 12:0-LPA
Experimental: as §1, §2, §3
A more accurate estimation of the LPAAT activity may be obtained by separating the PA product from these contaminants by TLC. The remaining organic phase is applied to a silica TLC plate. […] After the plate has dried, the distribution of radioactivity is visualized and quantitated using an AMBIS radioanalytic imaging system (AMBIS Systems Inc., San Diego, Calif.). From prior application of standard lipid components the Rf of the PA is known. The radioactivity associated with the PA spot is expressed as a percentage of the total radioactivity of the assay sample loaded on the plate. This ratio provides an indication of the proportion of the scintillation counts which represent the PA product, and may be used to correct the counts to obtain the total PA radioactivity formed in the assay.
A P2 membrane homogenate from immature embryos of developing rapeseed (Brassica napus) seeds is prepared essentially as described above, except as noted below.

bay LPAAT = test: LPAAT activity assay, California bay P2 membrane preparation; assay type: biochemical, Umbellularia californica; conditions: P2 membrane preparation; acyl-CoA donor varied, acceptor 12:0-LPA
Experimental: To assay for LPAAT activity, the sample is incubated with lysophosphatidic acid (LPA) and acyl-coenzyme A (acyl-CoA) substrates in buffered solution. The acyl substituents of the two substrates are chosen to correspond with the specificity of the enzyme being measured. […] The acyl group of one substrate is radioactively labeled in order to detect the product formed. In the examples which follow the acyl substituent of the acyl-CoA substrate is radiolabeled with ^14 C in the carboxyl group. LPAAT activity results in transfer of this acyl group from the acyl-CoA "donor" substrate to the LPA "acceptor" substrate, converting the latter into the product, phosphatidic acid (PA). LPAAT activity is measured as the amount of radioactive product formed in a given assay time. The PA product is radioactive as a result of the transferred radiolabeled acyl group at the central carbon atom of the molecule, and the quantity of PA formed may be determined by measuring radioactivity of the PA fraction. For this measurement, the PA is first separated from the acyl-CoA substrate by solvent partitioning, or by thin-layer chromatography (TLC).

control rapeseed LPAAT = test: LPAAT acyl-CoA specificity, control P2 preparation; assay type: biochemical; conditions: acyl-CoA donor varied at 5 μM, acceptor 12:0-LPA; 30 minute reaction
Experimental: (§4) Detailed acyl-CoA chain-length specificity analysis of control P2 preparations and LPAAT-transformed line 5511-5 were determined as described above, using the original 30 minute reaction time. The acyl-CoA substrates for this analysis are present in methanol, and thus the assay also had the following modifications. The first solution placed in the assay vial was the volume of each radiolabeled acyl-CoA required for 5 μM final assay concentration. […] After mixing to redissolve the acyl-CoA off the vial wall, the reaction is started by addition of 25 μl of a 5-fold diluted P2 preparation and continued as before. Acyl-CoA substrates used in this analysis were 8:0, 10:0, 12:0, 14:0, 16:0, 18:0, and 18:1. The acceptor substrate in these assays was 12:0-LPA.

[3] = target: T2, LPAAT of transformant 5511-5 (Cocos nucifera, UniProt Q42670); test: LPAAT acyl-CoA specificity, P2 preparation of LPAAT-transformed line 5511-5; assay type: biochemical, Rapeseed; conditions: acyl-CoA donor varied at 5 μM, acceptor 12:0-LPA; 30 minute reaction
T2 construct: crude P2 membranes, host LPAAT also present
T2 sequence (Q42670 1-308): T1 sequence (Q42670 1-308)
Experimental: as §4

coconut LPAAT [4] = target: T1, coconut LPAAT; test: Acyl-CoA specificity of coconut LPAAT expressed in E. coli (pCGN5505), membrane fractions; assay type: biochemical; parameters: the SalI/BamHI fragment of pCGN5504 containing the entire coconut LPAAT encoding region; made in house; host or cells: E. coli BL21(DE3), membrane fractions; conditions: acceptor 12:0-LPA
Experimental: The samples are centrifuged at 12,000 g for 15 minutes. The resulting supernatant fractions are centrifuged for two hours at 134,000 g, and the pelleted membranes suspended in 50 mM HEPES, 200 mM NaCl, 20% (w/v) glycerol, 5 mM β-mercaptoethanol, pH 7.5. Membrane fractions are assayed for acyl-CoA substrate specificities with 12:0-LPA and various acyl-CoA species as described in Example 1. Membrane preparations from cultures of E. coli and from immature coconut endosperm are combined with soybean phospholipids and diluted in 1M NaCl in Buffer A to simulate the pre-assay conditions of the solubilized enzyme.

Compound: 12:0-ACP: 12:0 acyl-ACP tested as LPAAT donor substrate
- utilization as LPAAT donor substrate instead of 12:0-CoA (coconut LPAAT [1]; coconut P2 preparation): will not utilize
- hydrolysis by the P2 preparation (coconut LPAAT [2]): not hydrolyzed

Compound: CCCCCCCCCCCC(=O)OCC(O)COP(=O)([O-])OCC[N+](C)(C)C (stereo not drawn) [12:0-LPC, lauroyl-lysophosphatidylcholine]
- LPCAT activity (LPCAT): undetectable

Compound: CCCCCCCCCCCCCCCCCC(=O)SCCNC(=O)CCNC(=O)[C@H](O)C(C)(C)COP(=O)(O)OP(=O)(O)OC[C@H]1O[C@@H](n2cnc3c(N)ncnc32)[C@H](O)[C@@H]1OP(=O)(O)O [18:0]
- LPAAT Activity from Coconut (coconut LPAAT [1]; P2 membrane preparation, acyl-CoA donor varied, acceptor 12:0-LPA): 13 pmol PA formed/30 min assay
- LPAAT Activity from Rapeseed (Rapeseed LPAAT): 21 pmol PA formed/30 min assay
- LPAAT Activity from Bay (bay LPAAT): 6 pmol PA formed/30 min assay
- Cpm PA Product, Control (control rapeseed LPAAT): 1514 Cpm
- Cpm PA Product, 5511-5 [3]: 2038 Cpm
- utilization by E. coli expressed coconut LPAAT (coconut LPAAT [4]): less well utilized
